Source: patent US20060258644A1, “Pyrrolobenzodiazepines and heteroaryl, aryl and cycloalkylamino ketone derivatives as follicle stimulating hormone receptor (FSH-R) antagonists” (Wyeth, priority 2005, published 2006)
pIC50: −log10 of the molar value.

What was measured:
human FSH receptor = biological target: T1, human FSH receptor (Homo sapiens, UniProt P23945); assay: FSH receptor-dependent CRE-luciferase reporter gene assay (CHO FSH-R 6CRE-Luc cells); assay type: cell-based; conditions: dose-response in presence of EC50 of purified human FSH; read-out: CRE IC50
T1 construct: host or cells: CHO-K1 (CHO FSH-R 6CRE-Luc, 1D7 cells)
T1 sequence (P23945 18-695): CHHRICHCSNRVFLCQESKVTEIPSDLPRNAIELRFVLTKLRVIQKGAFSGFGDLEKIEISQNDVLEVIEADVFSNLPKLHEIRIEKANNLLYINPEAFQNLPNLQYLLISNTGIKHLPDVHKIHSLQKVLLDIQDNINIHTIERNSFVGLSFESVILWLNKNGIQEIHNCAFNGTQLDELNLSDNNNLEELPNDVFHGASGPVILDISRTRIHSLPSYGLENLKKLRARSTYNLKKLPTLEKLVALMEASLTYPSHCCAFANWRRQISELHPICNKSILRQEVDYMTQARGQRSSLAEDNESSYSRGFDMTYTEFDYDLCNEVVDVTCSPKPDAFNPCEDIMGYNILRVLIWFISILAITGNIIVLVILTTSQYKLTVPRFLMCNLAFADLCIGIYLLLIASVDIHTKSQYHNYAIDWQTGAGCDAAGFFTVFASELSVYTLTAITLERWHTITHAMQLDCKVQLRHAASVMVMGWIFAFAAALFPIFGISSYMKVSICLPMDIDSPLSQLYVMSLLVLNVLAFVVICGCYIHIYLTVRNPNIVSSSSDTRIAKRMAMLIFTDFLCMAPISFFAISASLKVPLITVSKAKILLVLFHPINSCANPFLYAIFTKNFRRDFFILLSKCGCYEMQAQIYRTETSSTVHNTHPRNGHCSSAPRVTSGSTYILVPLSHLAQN
Description: Follicle-Stimulating Hormone Receptor-Dependent CRE-Luciferase Reporter Gene Assay for the Identification of Follicle-Stimulating Hormone (FSH) Antagonists
This procedure was used to identify and determine the relative potencies of human FSH receptor antagonists using a Chinese hamster ovarian cell line that stably produces the human FSH receptor and a luciferase reporter gene regulated by cAMP response elements.
The compounds were subsequently diluted in DMSO to working dilutions of 1 and 20 or 30 mM for 2-dose testing format and 1 μM-10 mM for dose-response format. The DMSO dilutions were diluted 500-fold in sterile growth medium [D-MEM/F-12 (GIBCO/BRL; Grand Island N.Y.) containing 15 mM HEPES, 2 mM 1-glutamine, pyridoxine hydrochloride, phenol red and 5% FetalClone II (HyClone Laboratories, Inc; Logan, Utah), 0.2% DMSO, 100 units penicillin G/ml, and 100 μg streptomycin sulfate/ml (GIBCO/BRL)]. The concentration of the vehicle in each of the compound dilutions was the same. • Positive Controls: Purified human FSH (>98%) was purchased from Cortex Biochem, Inc. (San Leandro, Calif.) and WAY-162002 (an FSH-R thiazolidinone antagonist) was obtained from the Wyeth Research compound repository. Preparation of Cells
The CHO FSH-R 6CRE-Luc cells (1D7 cells) were obtained from Affymax (Palo Alto, Calif.). These Chinese hamster ovary cells (CHO—K1) were genetically engineered to stably express the recombinant human FSH receptor gene and a luciferase reporter gene under the regulation of 6 copies of a cAMP response element. The cells were plated one day prior to treatment into 96-well white opaque plates at a density of 50,000 cells/100 μl/well in growth medium. On the day of treatment, the growth medium was removed from the wells by aspiration and 50 μl of fresh growth medium was added to each well. The cells were incubated at 37° C. in a humidified incubator with 5% CO2/95% air.
The treated cells were incubated for 4 hours at 37° C. in a humidified incubator with 5% CO2/95% air. At the end of-the incubation period, luciferase activity was measured by chemiluminescence using a commercially available kit (LucScreen, Tropix, Inc., Bedford, Mass.) according to the manufacturer's specifications, except that Buffer 1 and Buffer 2 were mixed together in equal proportion prior to the addition of 100 μl of the combined reagents to each well. Chemiluminescence was detected using a luminometer (EG & G Berthold Microlumat LB 96 P, Wallac, Gaithersburg, Md.) with chemiluminescence measured for 1 sec/well. Background luminescence was measured for each well prior to the addition of the LucScreen reagent.
In the 96-well 2-dose format, each compound was tested in duplicate at each dose. […] One plate was used to test a maximum of 22 compounds.
The EC50 of purified human FSH alone was tested in triplicate with each test compound. The doses chosen to test each compound were extrapolated from the initial 2-dose screening process. Along with the test compounds, purified human FSH was also tested in a dose response (0.03, 0.1, 0.3, 1, 3, 10, and 30 ng/ml) for a positive control and quality control. One plate was used for 3 test compounds and the FSH positive control.
Luciferase activity is expressed as relative light units/sec/well. Luciferase activity in antagonist was compared to the appropriate negative and positive controls. For 2-dose testing, results are reported as luciferase activity and are expressed as % inhibition of the response obtained from the EC50 of FSH. For dose-response testing, results are reported as IC50 values. Data were analyzed statistically by one-way analysis of variance with appropriate weighting and transformation and relevant paired test as determined by Biometrics (Wyeth Research, Princeton, N.J.). IC50 values were calculated using the Stat/Excel program developed by Biometrics with appropriate weighting and transformation.

hFSH-R = biological target: T2, hFSH-R (Homo sapiens, UniProt P23945); assay: cAMP accumulation bio-assay in CHO-3D2 cells (hFSH-R), RIA; assay type: cell-based
T2 construct: expressed in transfected cells; host or cells: CHO-3D2 cells
T2 sequence (P23945 18-695): T1 sequence (P23945 18-695)
Procedure: The compounds were subsequently diluted in sterile assay medium consisting of Opti-MEM® I (Life Technologies) with 0.1% (w/v) BSA (Sigma), prior to use in the bio-assay. The final concentration of DMSO in the assay is 0.1%.
Plated cells are then incubated at 37° C. in a humidified 5% CO2/95% air, atmosphere.
On the day of the assay, cells were washed three times with 100 μl/well of assay medium consisting of Opti-MEM® I (Life Technologies) with 0.1% (w/v) BSA (Sigma). Medium was removed and 100 μl of assay medium was added to each well. Plates were incubated for an additional 30 minutes at 37° C. […] Reactions were terminated by the addition of 50 μl of 0.2N hydrochloric acid to each well and cAMP-accumulation was measured by radioimmunoassay (RIA) using a commercially available kit (Amersham).
All test compounds were evaluated in a dose-response paradigm ranging from 0.01 to 30 μM. Controls and test compounds were evaluated in quadruplicate in a 96-well format.
Data were analyzed by one-way analysis of variance and significant differences between treatments and control determined by Least Significant Difference test.
Test compounds were compared to the effect of purified human FSH.

For `COc1ccccc1-c1ccc(C(=O)N2Cc3ccc(C(=O)CCc4cccnc4)n3Cc3ccccc32)cc1` [Example 3, 1-{10-[(2′-Methoxy-1,1′-biphenyl-4-yl)carbonyl]-10,11-dihydro-5H-pyrrolo[2,1-c][1,4]benzodiazepin-3-yl}-3-pyridin-3-ylpropan-1-one], the pIC50 (human FSH receptor) was 5.17, the pIC50 (hFSH-R) was 5.70 and the Emax (hFSH-R; read-out: cAMP % efficacy) was 78%.
